Test results reported in patent US8703811B2, “Small molecule inhibitors of Plasmodium falciparum dihydroorotate dehydrogenase” (Genzyme Corporation, priority 2008, dated 2014).
Where two headings read alike, the source gives them in different places.

What was measured:
[1] = tested on: P. falciparum 3D7; test: Inhibition of in vitro P. falciparum culture, [3H]-hypoxanthine uptake, 3D7; format: cell-based; conditions: Plasmodium falciparum, 3D7, Erythrocyte, read-out: 3D7 IC50
Method: (§1) P. falciparum strains D10, 3D7, HB3, and Dd2 were obtained from the Malaria Research and Reference Reagent Resource Center (Manassas, Va.). The parasite strains were maintained in vitro by method of Trager and Jensen. The inhibition of P. falciparum growth in the presence of drug was assessed by the relative reduction of [^3H]-hypoxanthine uptake as previously described. Inhibition data were fitted to Equation 1 using non-linear regression analysis except that the relative velocity of parasite growth was substituted for the rate of product formation.

[2] = tested on: P. falciparum Dd2; test: Inhibition of in vitro P. falciparum culture, [3H]-hypoxanthine uptake, Dd2; format: cell-based; conditions: Plasmodium falciparum, DD2, Erythrocyte, read-out: Dd2 IC50
Method: as §1

[3] = tested on: P. falciparum HB3; test: Inhibition of in vitro P. falciparum culture, [3H]-hypoxanthine uptake, HB3; format: cell-based; conditions: Plasmodium falciparum, HB3, Erythrocyte, read-out: HB3 IC50
Method: as §1

[4] = tested on: P. falciparum D10; test: Inhibition of in vitro P. falciparum culture, [3H]-hypoxanthine uptake, D10; format: cell-based; conditions: Plasmodium falciparum, D10, Erythrocyte, read-out: D10 IC50
Method: as §1

[5] = tested on: P. falciparum D10-scDHODH; test: Inhibition of transgenic D10-scDHODH parasites, [3H]-hypoxanthine uptake; format: cell-based; conditions: for IC50: Plasmodium falciparum, D10, read-out: D10-scDHODH IC50; for efficacy against D10-scDHODH strain compared to D10 parent strain: dose-effect curves, FIG. 5
Method: as §1
Transgenic parasites expressing scDHODH were generated as described by Painter et al. except that full length scDHODH was cloned directly into the pGem3Z vector without a GFP tag. The resultant plasmid was transfected into ring stages of P. falciparum D10 by electroporation and maintained in culture using standard methods under the selection of WR99210.

[6] = biological target: T1, pfDHODH (Plasmodium falciparum (isolate 3D7), UniProt Q08210); test: DHODH chromogen reduction (DCIP) assay, pfDHODH; format: biochemical, P. falciparum; conditions: 200 μM L-DHO; for inhibition at 50 µM: 50 μM inhibitor, 100 μM CoQD, 60 μM DCIP, read-out: % Inhibition of Product Formation Rate with 50 μM Inhibitor, CoQD; for IC50: pfDHODH IC50, DCIP assay, 18 μM CoQD, 100 μM DCIP, 20 nM enzyme
T1 sequence (Q08210 159-565 limits assumed): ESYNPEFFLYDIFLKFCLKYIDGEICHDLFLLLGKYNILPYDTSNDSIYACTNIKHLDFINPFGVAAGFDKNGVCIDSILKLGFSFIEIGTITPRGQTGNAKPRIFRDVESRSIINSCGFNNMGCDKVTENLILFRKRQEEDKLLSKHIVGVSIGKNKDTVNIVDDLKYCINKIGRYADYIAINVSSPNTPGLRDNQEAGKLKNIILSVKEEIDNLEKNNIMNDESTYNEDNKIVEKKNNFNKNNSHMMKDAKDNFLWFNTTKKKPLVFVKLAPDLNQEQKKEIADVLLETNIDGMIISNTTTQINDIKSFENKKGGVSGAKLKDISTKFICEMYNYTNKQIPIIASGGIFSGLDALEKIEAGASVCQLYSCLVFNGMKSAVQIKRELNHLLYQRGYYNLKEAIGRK
Text: Type 2 DHODH activity was monitored with either the direct assay measuring the formation of orotate or via a chromogen reduction assay using DCIP. Although the extinction coefficient and absorption wavelength are preferable for the chromogen reduction assay, the inorganic electron acceptor DCIP can be utilized by DHODH as the final electron acceptor in lieu of CoQn when the endogenous substrate is at a low concentration. As such, the direct assay was used to measure the binding affinity of pfDHODH to CoQD and L-DHO. The enzymatic reaction was performed by varying the L-DHO concentration (1-400 μM) or CoQD concentration (1-200 μM) while keeping the other substrate constant and in excess.
Substrate specificity and enzyme inhibition data was analyzed with GraphPad Prism Version 4 for Windows (GraphPad Software). Kinetic constants were calculated by non-linear regression fitting of the data to the Michaelis-Menten equation [36]. IC50 values were determined by non-linear regression fitting of the data to Equation 1: […]

[7] = Renal Proximal Tubule Epithelial Cell Toxicity Screen; format: cell-based
Method: The Renal Proximal Tubule Epithelial Cell Toxicity Screen is designed to determine whether compound mixtures, breakouts or single compounds are toxic to normal renal epithelial cells. […] Basically, the screen consists of plating renal epithelial cells, exposing them to the desired compound(s) for 4 days and measuring cell viability using the Alamar Blue reagent.
Harvested Kidney Epithelial cells were diluted in REGM to 1.5×10^4 cells/mL. […] NOTE: One plate, the T=0 plate required that 20-30 wells be seeded, and all the other plates had 96 wells seeded. Plates were incubated in 37° C./5% CO2 incubator for 24 hours.
(§2) Alamar Blue solution (25 μL/well) was added to the T=0 plate and mixed. The plate was incubated in 37° C./5% CO2 incubator for 4 hours, mixed and then the fluorescence was measured. 10% Tween 20 stock (10 μL) was added into rows A-D in column 1 (positive control). DMSO (0.5 μL) was added into column 2 (negative control). Compounds were placed into designated wells for desired testing as follows:
Plates were mixed on the shaker, and then incubated in 37° C./5% CO2 incubator for 96 hours. Day 6:
Alamar Blue solution (25 μL/well) was added to the plates containing the compounds and mixed. Plates were incubated in 37° C./5% CO2 incubator for 4 hours, mixed and the fluorescence was measured.

[8] = Normal Human Dermal Fibroblast Toxicity Screen; format: cell-based; conditions: human, normal human dermal fibroblasts; four days exposure, Alamar Blue; read-out: Dermal Fibroblast LC50
Method: The Normal Human Dermal Fibroblast Toxicity Screen Protocol is designed to determine whether compound mixtures, breakouts or single compounds are toxic to normal human dermal fibroblasts. The screen involves plating the dermal fibroblasts and then exposing them to the compounds for four days, then cell viability is measured using Alamar Blue reagent.
Harvested Dermal Fibroblast cells were diluted in Growth Media to 0.25 to 0.3×10^5 cells/mL. […] NOTE: One plate, the T=0 plate required that 20-30 wells be seeded and all the other plates had 96 wells seeded. Plates were incubated in 37° C./5% CO2 incubator for 24 hours.
as §2, with “the plate was agitated.” for “mixed.”, “plate” for “plate was incubated”, “incubator was incubated” for “incubator”, “3” for “4”, “agitated the” for “mixed”, “and” for “and then”
Plates were mixed on the shaker, then incubated in 37° C./5% CO2 incubator for 96 hours.
Alamar Blue solution (25 μL/well) was added to the plates containing the compounds, and the plates were agitated. The plates were incubated in 37° C./5% CO2 incubator for 3 hours, agitated and then the fluorescence was measured.

[9] = biological target: T1, pfDHODH; test: pfDHODH activity with FeCy as electron acceptor; conditions: read-out: % Inhibition of Product Formation Rate with 50 μM Inhibitor, FeCy
Method: Inhibitors of DHODH, as classified by the chromogen reduction assay, were also evaluated for activity using FeCy as an electron acceptor. A final concentration of 5-50 nM DHODH, 200 μM L-DHO and 100 μM FeCy in Buffer C was used in this assay. Both the reduction of FeCy and the formation of orotate was monitored at 420 nm (ε420=1 mM^−1 cm^−1) and 290 nm (ε280=2 mM^−1 cm^−1), respectively, noting that two molecules of FeCy are reduced for one molecule of L-DHO. As with the previous assays, the reaction was performed at 25° C. and initiated with the addition of enzyme.

[10] = [3H]-hypoxanthine uptake by parasite infected erythrocytes

| SMILES | IC50 [1, 10] [nM] | IC50 [2, 10] [nM] | IC50 [3, 10] [nM] | IC50 [4, 10] [nM] | IC50 [5] [nM] | efficacy against D10-scDHODH strain compared to D10 parent strain [5] | IC50 [1] [nM] | IC50 [2] [nM] | IC50 [3] [nM] | IC50 [4] [nM] | inhibition at 50 µM [6] [%] | IC50 [6] [nM] | CC50 at 96 h [7] [nM] | CC50 at 96 h [8] [nM] | inhibition at 50 µM [9] [%] |
| --- | --- | --- | --- | --- | --- | --- | --- | --- | --- | --- | --- | --- | --- | --- | --- |
| O=C1C(O)=C([C@H]2CC[C@H](c3ccc(Cl)cc3)CC2)C(=O)c2ccccc21 [Atovaquone, reference compound] | 0.18 | 0.2 | 0.22 | 0.42 | > 2000 | significantly reduced drug efficacy |  |  |  |  |  |  |  |  |  |
| CCN(CC)CCCC(C)Nc1ccnc2cc(Cl)ccc12 (centres unmarked) [Chloroquine, reference compound] |  |  |  |  | 13 | equally sensitive | 10 | 180 | 8 | 15 |  |  |  |  |  |
| Cc1ccccc1/C=C/c1cc(O)c2ccccc2n1 [Compound 2] | 320 | 250 | 240 | 300 | 8800 |  |  |  |  |  | 94 | 930 ± 100 | > 62000 | > 62000 | 1.2 |
| CCCCCC1CCCc2c1nc1ccccc1c2O (centres unmarked) [Compound 3] | 320 | 230 | 270 | 370 | > 10000 |  |  |  |  |  | 100 | 340 ± 100 | > 62000 | > 62000 | 17 |
| Fc1cc(I)ccc1Nc1ccnc2cc(Cl)ccc12 [Compound 4] | 1800 | 2300 | 2200 | 1000 | 980 |  |  |  |  |  | 97 | 580 ± 100 | 49000 | 64000 | 7.7 |
| CCOC(=O)c1[nH]c(C)c(Cc2ccc(OCC)cc2)c1C [Compound 6] | 770 | 440 | 690 | 1200 | > 10000 |  |  |  |  |  | 102 |  | > 62000 | > 62000 | 4.8 |
| CCc1nc(N)nc(N)c1-c1ccc(Cl)cc1 [Pyrimethamine, reference compound] | 36 | > 10000 | 940 | 55 | 47 |  |  |  |  |  |  |  |  |  |  |
